Here are results for 18 compounds from patent US20240343733A1, “COMPOUNDS FOR TARGETING DEGRADATION OF IRAK4 PROTEINS” (BIOGEN MA INC., priority 2021, published 2024).

Molecules are shown by their SMILES.

The test deals with T1, IRAK4 (Homo sapiens, UniProt Q9NWZ3).
T1 construct: 293Tcells expressing HiBiT-tagged IRAK4 were then added into 384-well plates
T1 sequence (Q9NWZ3 1-460): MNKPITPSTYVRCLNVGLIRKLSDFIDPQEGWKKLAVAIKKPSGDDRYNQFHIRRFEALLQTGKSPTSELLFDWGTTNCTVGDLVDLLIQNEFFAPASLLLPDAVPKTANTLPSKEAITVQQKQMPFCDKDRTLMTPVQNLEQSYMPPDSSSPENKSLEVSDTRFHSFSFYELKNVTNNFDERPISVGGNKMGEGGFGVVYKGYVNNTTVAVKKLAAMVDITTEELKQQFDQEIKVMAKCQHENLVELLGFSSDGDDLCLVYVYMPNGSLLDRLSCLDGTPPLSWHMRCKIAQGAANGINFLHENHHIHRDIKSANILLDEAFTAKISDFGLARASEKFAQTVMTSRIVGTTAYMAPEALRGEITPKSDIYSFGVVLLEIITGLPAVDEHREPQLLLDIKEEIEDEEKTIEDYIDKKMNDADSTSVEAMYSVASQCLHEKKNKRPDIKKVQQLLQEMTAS
Briefly: IRAK4 Degradation Assay, HiBiT Method. The format is cell-based. Conditions: 293T cells expressing HiBiT-tagged IRAK4, 6 hours. The protocol: Assay 1. IRAK4 Degradation Assay, HiBiT Method
Selected compounds were tested in an IRAK4 degradation assay using the HiBiT Method.
Phenol red-free Dulbecco's modified Eagle medium (DMEM) and fetal bovine serum (FBS) were purchased from Gibco (Grand Island, NY, USA). The Nano-Glo® HiBiT Lytic Assay System was purchased from Promega (Madison, WI, USA). Cell culture flasks and 384-well microplates were acquired from VWR (Radnor, PA, USA). The 293Tcell line was engineered by knocking-in a HiBiT fusion tag into the C-terminal of the IRAK4 gene in 293T cells (Synthego, Redwood City, CA, USA).
IRAK4 degradation was measured via the quantification of luminescent signals using the Nano-Glo® HiBiT Lytic Assay kit. Test compounds were added to 384-well plates in duplicate using an 11-point half-log dilution series, with the highest dose set at […]. 293Tcells expressing HiBiT-tagged IRAK4 were then added into 384-well plates at a cell density of 10,000 cells per well. The plates were kept at 37° C. with 5% CO2 for 6 hours. Cells that were treated only with DMSO served as the negative control; wells that contained only assay media served as the background control. After the 6-hour incubation, Nano-Glo® HiBiT Lytic Assay reagents were added to the cells. Luminescence was acquired using an EnVision™ Multilabel Reader (PerkinElmer, Santa Clara, CA, USA).
The compound `CC(C)Oc1cc2nc([C@H]3CC[C@H](CN4CCC(c5ccc(CN6CCC(=O)NC6=O)cc5)CC4)CC3)cn2cc1C(=O)Nc1cccc(C(F)F)n1` [Example 37, N-[6-(difluoromethyl)-2-pyridyl]-2-[4-[[4-[4-[(2,4-dioxohexahydropyrimidin-1-yl)methyl]phenyl]-1-piperidyl]methyl]cyclohexyl]-7-isopropoxy-imidazo[1,2-a]pyridine-6-carboxamide] had a DC50 of 10 to 100 nM.
As to `CC(C)Oc1cc2nc([C@H]3CC[C@H](CN4CCC(c5ccc(N6CCC(=O)NC6=O)cc5)CC4)CC3)cn2cc1C(=O)Nc1cccc(C(F)F)n1` [Example 39, N-[6-(difluoromethyl)-2-pyridyl]-2-[4-[[4-[4-(2,4-dioxohexahydropyrimidin-1-yl)phenyl]-1-piperidyl]methyl]cyclohexyl]-7-isopropoxy-imidazo[1,2-a]pyridine-6-carboxamide], the DC50 lay within 10 to 100 nM.
To `CC(C)Oc1cc2nc([C@H]3CC[C@H](CN4CCC(c5ccc(C6(C)CCC(=O)NC6=O)cc5)CC4)CC3)cn2cc1C(=O)Nc1cccc(C(F)F)n1` (stereo partly drawn) [Example 40, N-[6-(difluoromethyl)-2-pyridyl]-7-isopropoxy-2-[4-[[4-[4-(3-methyl-2,6-dioxo-3-piperidyl)phenyl]-1-piperidyl]methyl]cyclohexyl]imidazo[1,2-a]pyridine-6-carboxamide] belongs 100 to 500 nM; to `CC(C)Oc1cc2nc([C@H]3CC[C@H](CN(C)C4CCN(c5ccc(C6CCC(=O)NC6=O)cc5)CC4(F)F)CC3)cn2cc1C(=O)Nc1cccc(C(F)F)n1` (stereo partly drawn) [Example 42, N-[6-(difluoromethyl)-2-pyridyl]-2-[4-[[[1-[4-(2,6-dioxo-3-piperidyl)phenyl]-3,3-difluoro-4-piperidyl]-methyl-amino]methyl]cyclohexyl]-7-isopropoxy-imidazo[1,2-a]pyridine-6-carboxamide], 100 to 500 nM; to `CC(C)Oc1cc2nc([C@H]3CC[C@H](CN(C)C4CCN(Cc5ccc6c(c5)n(C)c(=O)n6C5CCC(=O)NC5=O)CC4)CC3)cn2cc1C(=O)Nc1cccc(C(F)F)n1` (stereo partly drawn) [Example 43, N-[6-(difluoromethyl)-2-pyridyl]-2-[4-[[[1-[[1-(2,6-dioxo-3-piperidyl)-3-methyl-2-oxo-benzimidazol-5-yl]methyl]-4-piperidyl]-methyl-amino]methyl]cyclohexyl]-7-isopropoxy-imidazo[1,2-a]pyridine-6-carboxamide], 10 to 100 nM.
To `Cc1cn(C2CCC(=O)NC2=O)c2ccc(C3CCN(C[C@H]4CC[C@H](c5cn6cc(C(=O)Nc7cccc(C(F)F)n7)c(OC(C)C)cc6n5)CC4)CC3)cc12` (stereo partly drawn) [Example 44, N-[6-(difluoromethyl)-2-pyridyl]-2-[4-[[4-[1-(2,6-dioxo-3-piperidyl)-3-methyl-indol-5-yl]-1-piperidyl]methyl]cyclohexyl]-7-isopropoxy-imidazo[1,2-a]pyridine-6-carboxamide] belongs 10 to 100 nM; to `CC(C)Oc1cc2nc([C@H]3CC[C@H](CN4CCC(c5ccc(C6(F)CCC(=O)NC6=O)cc5)CC4)CC3)cn2cc1C(=O)Nc1cccc(C(F)F)n1` (stereo partly drawn) [Example 45, N-[6-(difluoromethyl)-2-pyridyl]-2-[4-[[4-[4-(3-fluoro-2,6-dioxo-3-piperidyl)phenyl]-1-piperidyl]methyl]cyclohexyl]-7-isopropoxy-imidazo[1,2-a]pyridine-6-carboxamide], 100 to 500 nM.
To `CC(C)Oc1cc2nc([C@H]3CC[C@H](CN4CC5(CCCN5Cc5ccc(OC6CCC(=O)NC6=O)cc5)C4)CC3)cn2cc1C(=O)Nc1cccc(C(F)F)n1` (stereo partly drawn) [Example 46, N-[6-(difluoromethyl)-2-pyridyl]-2-[4-[[5-[[4-[(2,6-dioxo-3-piperidyl)oxy]phenyl]methyl]-2,5-diazaspiro[3.4]octan-2-yl]methyl]cyclohexyl]-7-isopropoxy-imidazo[1,2-a]pyridine-6-carboxamide] belongs 10 to 100 nM.
Regarding `Cc1cnc2c(NC(=O)c3cn4cc([C@H]5CC[C@H](CN6CCC(c7ccc8c(c7)n(C)c(=O)n8C7CCC(=O)NC7=O)CC6)CC5)nc4cc3OC(C)C)cnn2c1` (stereo partly drawn) [Example 51, 2-[4-[[4-[1-(2,6-dioxo-3-piperidyl)-3-methyl-2-oxo-benzimidazol-5-yl]-1-piperidyl]methyl]cyclohexyl]-7-isopropoxy-N-(6-methylpyrazolo[1,5-a]pyrimidin-3-yl)imidazo[1,2-a]pyridine-6-carboxamide], the DC50 is under 10 nM.
Under `Cc1cnc2c(NC(=O)c3cn4cc([C@H]5CC[C@H](CN6CCC(c7cc(F)c(C8CCC(=O)NC8=O)cc7F)C(F)(F)C6)CC5)nc4cc3OC(C)C)cnn2c1` (stereo partly drawn) [Example 54, 2-[4-[[4-[4-(2,6-dioxo-3-piperidyl)-2,5-difluoro-phenyl]-3,3-difluoro-1-piperidyl]methyl]cyclohexyl]-7-isopropoxy-N-(6-methylpyrazolo[1,5-a]pyrimidin-3-yl)imidazo[1,2-a]pyridine-6-carboxamide] stands 100 to 500 nM; under `CC(C)Oc1cc2nn(C3CCN(C(=O)CN4CCC(c5ccc(C6CCC(=O)NC6=O)cc5)CC4)CC3)cc2cc1C(=O)Nc1cnn2cccnc12` (stereo not drawn) [Example 56, 2-(1-(2-(4-(4-(2,6-dioxopiperidin-3-yl)phenyl)piperidin-1-yl)acetyl)piperidin-4-yl)-6-isopropoxy-N-(pyrazolo[1,5-a]pyrimidin-3-yl)-2H-indazole-5-carboxamide], under 10 nM.
For `CC(C)Oc1cc2nn(C3CCN(C(=O)CC4(O)CCN(c5cc(F)c(C6CCC(=O)NC6=O)cc5F)CC4)CC3)cc2cc1C(=O)Nc1cnn2cccnc12` (stereo not drawn) [Example 57, 2-(1-(2-(1-(4-(2,6-dioxopiperidin-3-yl)-2,5-difluorophenyl)-4-hydroxypiperidin-4-yl)acetyl)piperidin-4-yl)-6-isopropoxy-N-(pyrazolo[1,5-a]pyrimidin-3-yl)-2H-indazole-5-carboxamide], the DC50 was under 10 nM.
To `CC(C)Oc1cc2nn(C3CCN(C(=O)CC4(O)CCN(c5ccc(NC6CCC(=O)NC6=O)cc5)CC4)CC3)cc2cc1C(=O)Nc1cccc(C(F)(F)F)n1` (stereo not drawn) [Example 58, 2-[1-[2-[1-[4-[(2,6-dioxo-3-piperidyl)amino]phenyl]-4-hydroxy-4-piperidyl]acetyl]-4-piperidyl]-6-isopropoxy-N-[6-(trifluoromethyl)-2-pyridyl]indazole-5-carboxamide] belongs 10 to 100 nM.
Under `CC(C)Oc1cc2nn(C3CCN(C(=O)CC4(O)CCN(c5ccc(NC6CCC(=O)NC6=O)cc5F)CC4)CC3)cc2cc1C(=O)Nc1cccc(C(F)(F)F)n1` (stereo not drawn) [Example 59, 2-[1-[2-[1-[4-[(2,6-dioxo-3-piperidyl)amino]-2-fluoro-phenyl]-4-hydroxy-4-piperidyl]acetyl]-4-piperidyl]-6-isopropoxy-N-[6-(trifluoromethyl)-2-pyridyl]indazole-5-carboxamide] stands 10 to 100 nM; under `CC(C)Oc1cc2nn(C3CCN(C(=O)CN4CCC(c5ccc(NC6CCC(=O)NC6=O)cc5)CC4)CC3)cc2cc1C(=O)Nc1cccc(C(F)(F)F)n1` (stereo not drawn) [Example 60, 2-(1-(2-(4-(4-((2,6-dioxopiperidin-3-yl)amino)phenyl)piperidin-1-yl)acetyl)piperidin-4-yl)-6-isopropoxy-N-(6-(trifluoromethyl)pyridin-2-yl)-2H-indazole-5-carboxamide], 100 to 500 nM.
Under `CC(C)Oc1cc2nn(C3CCN(C(=O)CN4CCC(c5ccc(NC6CCC(=O)NC6=O)cc5F)CC4)CC3)cc2cc1C(=O)Nc1cccc(C(F)(F)F)n1` (stereo not drawn) [Example 61, 2-[1-[2-[4-[4-[(2,6-dioxo-3-piperidyl)amino]-2-fluoro-phenyl]-1-piperidyl]acetyl]-4-piperidyl]-6-isopropoxy-N-[6-(trifluoromethyl)-2-pyridyl]indazole-5-carboxamide] stands 100 to 500 nM; under `CC(C)Oc1cc2nn(C3CCN(C(=O)CN4CCC(c5ccc(C6CCC(=O)NC6=O)cc5)CC4)CC3)cc2cc1C(=O)Nc1cccc(C(F)F)n1` (stereo not drawn) [Example 62, N-[6-(difluoromethyl)-2-pyridyl]-2-[1-[2-[4-[4-(2,6-dioxo-3-piperidyl)phenyl]-1-piperidyl]acetyl]-4-piperidyl]-6-isopropoxy-indazole-5-carboxamide], under 10 nM.
In turn, `CC(C)Oc1cc2nn(C3CCN(C(=O)CN4CCC(c5ccc(C6CCC(=O)NC6=O)cc5F)CC4)CC3)cc2cc1C(=O)Nc1cccc(C(F)F)n1` (stereo not drawn) [Example 63, N-(6-(difluoromethyl)pyridin-2-yl)-2-(1-(2-(4-(4-(2,6-dioxopiperidin-3-yl)-2-fluorophenyl)piperidin-1-yl)acetyl)piperidin-4-yl)-6-isopropoxy-2H-indazole-5-carboxamide] displayed a DC50 of 10 to 100 nM.
